Laboratory results as given in patent publication US10532068B2, “Dual molecular delivery of oligonucleotides and peptide containing conjugates” (Merck Sharp & Dohme Corp., priority 2013, dated 2020).
Where no end group is shown, it is not given here. [ ]: non-standard residue; d: D form. S‑S‑TGN = not defined here; TGN = not defined here

Tested on: CTNNB1
Assay: In vivo evaluation in mice: liver mRNA knockdown measurement (TaqMan qPCR)
Parameters: species or system CD-1 mice
Experimental: Female CD-1 mice (Charles River) were injected in accordance with either a sequential dosing paradigm or a co-dosing paradigm. In the sequential dosing paradigm, the targeted siRNA (SCE) is dosed at t=0 and the targeted peptide is separately dosed up to 2 hr before the SCE (−2 hr) or up to 24 hr after the SCE (+24 hr). In the co-dosing paradigm, the SCE and peptides are co-formulated and dosed together in the same formulation as a single injection at t=0. The mice were dosed either by intravenous (i.v.) or subcutaneous (s.c.) injection of SCE and peptide. For the i.v. doses, the compounds were injected into the tail vein of the mice. For the s.c. doses, the compounds were injected in the subcutaneous space on the back of the mouse between the shoulder blades. At the indicated harvest times (measured from t=0 when the siRNA was dosed, regardless of when the peptide was dosed), the animals were sacrificed and 3 mm liver punches were collected, preserved in RNAlater (Ambion), and stored at 4° C. Separate 5 mm liver punches were collected, placed in 96-well plates, frozen on dry ice, and stored at −80° C. until use.
The 3 mm liver punches were removed from RNAlater and homogenized in Trizol (Invitrogen) using a bead mill tissue lyser (Qiagen); disruption was performed for two 5-minute cycles at 30 Hz. RNA extraction was performed using 1-bromo-2-chloropropane (Acros Organics) and total RNA was isolated from the aqueous phase using the MagMax RNA isolation method (Ambion). […] TaqMan qPCR analysis was performed with an ABI 7900 Real-Time PCR System using TaqMan Fast Advanced Master Mix (Applied Biosystems). All TaqMan probes and primers for CTNNB1 and PPIB (housekeeping gene) were purchased from Applied Biosystems as pre-validated gene expression assays. Results are calculated by the comparative Ct method, where the difference between the CTNNB1 Ct value and the PPIB Ct value (ΔCt) is calculated and then further normalized relative to the PBS control by taking a second difference (ΔΔCt), as described previously (1).

[1] = Table 6, mice, sequential, peptide IV 15 min after siRNA IV, TGN-L-siRNA-III 0.25 mg/kg, peptide 2 mg/kg
[2] = Table 6, mice, sequential, peptide IV 15 min after siRNA IV, TGN-L-siRNA-III 0.25 mg/kg, peptide 10 mg/kg
[3] = Table 6, mice, sequential, peptide IV 15 min after siRNA IV, TGN-L-siRNA-III 0.5 mg/kg, peptide 5 mg/kg
[4] = Table 6, mice, sequential, peptide IV 15 min after siRNA IV, TGN-L-siRNA-III 0.25 mg/kg, peptide 5 mg/kg

TGN-CDM-SEQ ID NO: 1801 (D): TGN-CDM peptide, peptide glfgeieelieeglenlidwgng; C8 made from same all-D sequence (SEQ ID NO: 1074) (G[dL][dF]G[dE][dI][dE][dE][dL][dI][dE][dE]G[dL][dE][dN][dL][dI][dD][dW]G[dN]G; also: TGN-CDM conjugate; listed as Homo sapiens)
In vivo mRNA knockdown (%) (Table 8 (disulfide vs. ECL vs. CDM linkage), TGN-L-siRNA-II 0.25 mg/kg, targeted peptide 1 mg/kg): 23.0%
In vivo mRNA knockdown (%) (Table 8 (disulfide vs. ECL vs. CDM linkage), TGN-L-siRNA-II 0.25 mg/kg, targeted peptide 3 mg/kg): 24.9%

TGN-S-S-SEQ ID NO: 935 (L) (C(TGN)GFFGEIAELIWEGLKNLIDWWNG; reading uncertain; also: TGN attached via disulfide (S-S); listed as Homo sapiens)
In vivo mRNA knockdown (%) [1]: 17%
In vivo mRNA knockdown (%) [2]: 23%

TGN-S-S-SEQ ID NO: 1248 (L) (C(TGN)FLEELWELLEHLL; reading uncertain; listed as Homo sapiens)
In vivo mRNA knockdown (%) [3]: 24%

TGN-S-S-SEQ ID NO: 1403 (L) (C(TGN)GLLEEIEELLEEGLENLIDWWNS; reading uncertain; listed as Homo sapiens)
In vivo mRNA knockdown (%) [1]: 22%
In vivo mRNA knockdown (%) [2]: 24%

TGN-S-S-SEQ ID NO: 1489 (D) ([dC](S‑S‑TGN)[dL][dE][dL][dW][dL][dE][dH][dL][dF][dL][dE][dL][dE]; reading uncertain; also: Cys disulfide-linked to TGN peptide; listed as Homo sapiens)
In vivo mRNA knockdown (%) (Table 6, mice, sequential, peptide IV 15 min after siRNA IV, TGN-L-siRNA-III 0.5 mg/kg, peptide 2 mg/kg): 37%
In vivo mRNA knockdown (%) (Table 6, mice, sequential, peptide IV 15 min after siRNA IV, TGN-L-siRNA-III 0.5 mg/kg, peptide 10 mg/kg): 26%
In vivo mRNA knockdown (%) (Table 6, mice, sequential, peptide IV 15 min after siRNA IV, TGN-L-siRNA-III 0.5 mg/kg, peptide 25 mg/kg): 34%

TGN-S-S-SEQ ID NO: 1516 (L) (C(TGN)GLFAEIEELLEEGLENLIDWWNG; reading uncertain; listed as Homo sapiens)
In vivo mRNA knockdown (%) [4]: 14%

TGN-S-S-SEQ ID NO: 1631 (D) ([dC](S‑S‑TGN)G[dL][dF]G[dH][dI][dH][dH][dL][dI][dH][dH]G[dL][dH][dN][dL][dI][dD][dW][dW][dN]G; reading uncertain; also: Cys disulfide-linked to TGN peptide; listed as Homo sapiens)
In vivo mRNA knockdown (%) [2]: 17%

TGN-S-S-SEQ ID NO: 1632 (D) ([dC](S‑S‑TGN)G[dL][dF]G[dE][dI][dH][dH][dL][dI][dH][dH]G[dL][dH][dN][dL][dI][dD][dW][dW][dN]G; reading uncertain; also: Cys disulfide-linked to TGN peptide; listed as Homo sapiens)
In vivo mRNA knockdown (%) [2]: 36%

TGN-S-S-SEQ ID NO: 1633 (D) ([dC](TGN)G[dL][dF]G[dE][dI][dH][dH][dL][dI][dH][dH]G[dL][dE][dN][dL][dI][dD][dW][dW][dN]G; reading uncertain; also: Cys disulfide-linked to TGN peptide; listed as Homo sapiens)
In vivo mRNA knockdown (%) [2]: 55%

TGN-S-S-SEQ ID NO: 1634 (D) ([dC](TGN)G[dL][dF]G[dE][dI][dH][dE][dL][dI][dH][dH]G[dL][dE][dN][dL][dI][dD][dW][dW][dN]G; reading uncertain; also: Cys disulfide-linked to TGN peptide; listed as Homo sapiens)
In vivo mRNA knockdown (%) [2]: 17%

TGN-S-S-SEQ ID NO: 1643 (D) ([dC](TGN)G[dF][dF]G[dE][dI][dA][dE][dL][dI][dE][dE]G[dL][dK][dN][dL][dI][dD][dW]G[dN]G; reading uncertain; also: Cys disulfide-linked to TGN peptide; listed as Homo sapiens)
In vivo mRNA knockdown (%) [2]: 41%

TGN-S-S-SEQ ID NO: 1651 (D) ([dC](TGN)G[dL][dF][dE][dE][dI][dA][dE][dL][dI][dE][dE]G[dL][dE][dN][dL][dI][dD][dW]G[dN]G; reading uncertain; also: Cys disulfide-linked to TGN peptide; listed as Homo sapiens)
In vivo mRNA knockdown (%) [2]: 49%

TGN-S-S-SEQ ID NO: 1652 (D) ([dC](TGN)[dE][dL][dF][dE][dE][dL][dA][dE][dL][dL][dW][dE]G[dL][dE][dN][dL][dI][dD][dW]G[dN][dS]; reading uncertain; also: Cys disulfide-linked to TGN peptide; listed as Homo sapiens)
In vivo mRNA knockdown (%) [2]: 37%

TGN-S-S-SEQ ID NO: 1653 (D) ([dC](TGN)G[dL][dF]G[dE][dI][dA][dE][dL][dI][dW][dE]G[dL][dE][dN][dL][dI][dD][dW]G[dN]G; reading uncertain; also: Cys disulfide-linked to TGN peptide; listed as Homo sapiens)
In vivo mRNA knockdown (%) [2]: 63%
In vivo mRNA knockdown (%) (Table 6, mice, sequential, peptide IV 15 min after siRNA IV, TGN-L-siRNA-III 0.25 mg/kg, peptide 50 mg/kg): 69%

TGN-S-S-SEQ ID NO: 1712 (L) (C(TGN)FLGALWKALSELLKNLIDWWNG; reading uncertain; also: Cys disulfide-linked to TGN peptide; listed as Homo sapiens)
In vivo mRNA knockdown (%) [3]: 34%

TGN-S-S-SEQ ID NO: 1713 (L): TGN-S-S-peptide, peptide CGL-R6H-GELEEL-S7H-EEGLENLIDWWNG (STAPLED)
In vivo mRNA knockdown (%) [1]: 0%
In vivo mRNA knockdown (%) [2]: 2%

TGN-S-S-SEQ ID NO: 1716 (L) (C(TGN)GLFEELAGLLWHGLKNLIDWWNG; reading uncertain; also: Cys disulfide-linked to TGN peptide; listed as Homo sapiens)
In vivo mRNA knockdown (%) [3]: 39%

TGN-S-S-SEQ ID NO: 1717(L): TGN-S-S-peptide, peptide CFLGALFHALSHLLENLIDWWNG (C(TGN)FLGALFHALSHLLENLIDWWNG; reading uncertain; also: Cys disulfide-linked to TGN peptide; listed as Homo sapiens)
In vivo mRNA knockdown (%) [3]: 16%

TGN-S-S-SEQ ID NO: 1719 (L) (C(TGN)GLFAEIEELIWEGLENLIDWWNQ; reading uncertain; also: Cys disulfide-linked to TGN peptide; listed as Homo sapiens)
In vivo mRNA knockdown (%) [4]: 25%

TGN-S-S-SEQ ID NO: 1725 (L) (C(TGN)SSAWWSYWPPVA; reading uncertain; also: Cys disulfide-linked to TGN peptide; listed as Homo sapiens)
In vivo mRNA knockdown (%) [2]: 19%

TGN-S-S-SEQ ID NO: 1726(D) ([dC](TGN)G[dL][dF][dA][dV][dI][dK][dK][dV][dA][dS][dV][dI]GG[dL]; reading uncertain; also: Cys disulfide-linked to TGN peptide; listed as Homo sapiens)
In vivo mRNA knockdown (%) [2]: 23%

TGN-S-S-SEQ ID NO: 1727 (D) ([dC](TGN)G[dL][dF][dA][dV][dI][dH][dH][dV][dA][dS][dV][dI]GG[dL]; reading uncertain; also: Cys disulfide-linked to TGN peptide; listed as Homo sapiens)
In vivo mRNA knockdown (%) [2]: 26%

TGN-S-S-SEQ ID NO: 1728(D) ([dC](TGN)G[dL][dF][dA][dV][dI][dE][dE][dV][dA][dS][dV][dI]GG[dL]; reading uncertain; also: Cys disulfide-linked to TGN peptide; listed as Homo sapiens)
In vivo mRNA knockdown (%) [2]: 23%

TGN-S-S-SEQ ID NO: 1729 (L) (C(TGN)GPSQPTYPGDDAPVRDLIRFYRDLRRYLNVVTRHRY; reading uncertain; also: Cys disulfide-linked to TGN peptide; listed as Homo sapiens)
In vivo mRNA knockdown (%) [2]: 10%

TGN-S-S-SEQ ID NO: 1730 (D): TGN-S-S-peptide, peptide CGIGAVLHVLTTGLPALISWIKRKRQQ
In vivo mRNA knockdown (%) [2]: 43%

TGN-S-S-SEQ ID NO: 1731(D): TGN-S-S-peptide, peptide CGIGAVLHVLTTGLPALISWIHHHHQQ
In vivo mRNA knockdown (%) [2]: 30%

TGN-S-S-SEQ ID NO: 1732 (D): TGN-S-S-peptide, peptide AC-GIFEAIAGLLKINFKC
In vivo mRNA knockdown (%) [4]: 35%
